Ends that are not written are not given here. * marks the point of attachment. DABCYL = CN(C)c1ccc(/N=N/c2ccc(C(=O)*)cc2)cc1; EDANS = O=S(=O)(O)c1cccc2c(NCCN*)cccc12; AMC = Cc1cc(=O)oc2cc(N*)ccc12
What was measured:
ADAMTS13 = ADAMTS13 activity in PRP using peptidyl substrates; format: biochemical, human; settings: normal PRP 20 μl, 0.8 mM substrate, 37° C., 10 mM Tris-HCl pH 8.0, Ex 360 nm/Em 460 nm, FIG. 3
Experimental: (§1) Blood was collected by venopuncture into collection tubes containing 0.12 M sodium citrate, an anti-coagulant. The citrated blood was centrifuged at 700 rpm for 10 minutes. The supernatant was removed and saved as the platelet rich plasma (PRP) fraction. The PRP was centrifuged at 10,000 rpm for 20 minutes. The supernatant was removed and saved as the platelet poor plasma (PPP) fraction. The pellet contained the platelets, which were washed by resuspending in 10 mM Tris-HCl pH 8.0 buffer and centrifuging at 10,000 rpm for 10 minutes. The isolated platelets were resuspended in buffer and used in experiments.
As discussed above, Furlan et al. reported that some peptidyl-pNA moieties, such as XLY-pNA and XVY-pNA, were not substrates for ADAMTS13. We prepared LVY-pNA and tested it for its ability to be cleaved by ADAMTS13. The results shown in FIG. 2 confirm the findings of Furlan et al., i.e., LVY-pNA was not cleaved by ADAMTS13.
In order to determine the effect of modifying the length of the peptide sequence conjugated to the AMC fluorochrome, normal PRP (20 μl) was incubated at 37° C. with a final concentration of 0.8 mM Suc-LLVY-AMC or LVY-AMC in 10 mM Tris-HCl pH 8.0 buffer in total volume of 200 μl. Fluorescence was measured using a microtiter fluorophotometric plate reader (Ex 360 nm/Em 460 nm).

platelet ADAMTS13 [1] = tested on: T1, platelet ADAMTS13
T1 sequence: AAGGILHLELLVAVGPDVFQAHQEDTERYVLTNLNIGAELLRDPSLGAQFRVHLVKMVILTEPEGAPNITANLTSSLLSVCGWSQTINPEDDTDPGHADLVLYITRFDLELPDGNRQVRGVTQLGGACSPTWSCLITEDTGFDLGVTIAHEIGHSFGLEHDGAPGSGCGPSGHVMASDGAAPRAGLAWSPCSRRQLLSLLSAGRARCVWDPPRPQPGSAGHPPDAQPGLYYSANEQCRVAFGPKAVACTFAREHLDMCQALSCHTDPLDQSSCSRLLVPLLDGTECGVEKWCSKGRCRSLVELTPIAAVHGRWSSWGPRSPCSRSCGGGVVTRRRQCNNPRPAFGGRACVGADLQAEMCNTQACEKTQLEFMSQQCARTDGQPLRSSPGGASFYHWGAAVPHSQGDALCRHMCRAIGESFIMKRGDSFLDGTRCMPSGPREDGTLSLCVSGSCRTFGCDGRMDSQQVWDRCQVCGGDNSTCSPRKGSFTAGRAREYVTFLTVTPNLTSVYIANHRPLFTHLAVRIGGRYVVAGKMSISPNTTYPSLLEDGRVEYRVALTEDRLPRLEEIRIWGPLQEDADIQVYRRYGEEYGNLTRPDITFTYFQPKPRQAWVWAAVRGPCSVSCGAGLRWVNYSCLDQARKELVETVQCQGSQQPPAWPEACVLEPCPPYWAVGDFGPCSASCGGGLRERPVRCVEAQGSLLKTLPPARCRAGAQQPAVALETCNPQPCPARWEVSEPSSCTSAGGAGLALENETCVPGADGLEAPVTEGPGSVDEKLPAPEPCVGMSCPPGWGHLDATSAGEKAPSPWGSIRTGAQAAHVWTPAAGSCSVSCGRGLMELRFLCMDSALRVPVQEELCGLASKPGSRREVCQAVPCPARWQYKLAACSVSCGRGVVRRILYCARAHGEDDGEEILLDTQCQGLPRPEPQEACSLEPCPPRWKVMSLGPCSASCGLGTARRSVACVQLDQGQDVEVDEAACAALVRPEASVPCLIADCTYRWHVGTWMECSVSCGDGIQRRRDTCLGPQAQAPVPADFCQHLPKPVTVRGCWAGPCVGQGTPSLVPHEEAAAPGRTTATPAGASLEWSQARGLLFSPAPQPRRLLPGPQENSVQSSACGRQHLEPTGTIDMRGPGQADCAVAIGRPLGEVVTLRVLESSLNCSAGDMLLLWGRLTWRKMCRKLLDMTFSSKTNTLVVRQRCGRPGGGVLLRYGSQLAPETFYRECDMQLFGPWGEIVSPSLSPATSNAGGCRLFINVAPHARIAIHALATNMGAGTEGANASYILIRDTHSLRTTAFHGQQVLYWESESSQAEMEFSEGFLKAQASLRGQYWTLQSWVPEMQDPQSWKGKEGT

[2] = tested on: form of ADAMTS13 found on platelets; assay: ADAMTS13 activity on isolated platelets using a FRET substrate; format: biochemical, human; settings: 8 μg/ml substrate, 37° C., Ex 360 nm/Em 440 nm, FIG. 4
Experimental: as §1
ADAMTS13 activity was measured using a fluorescent substrate attached to a donor moiety and an acceptor moiety that functions by fluorescence resonance energy transfer (FRET). The ADAMTS13 selective substrate, NH2-Arg-Lys(DABCYL)-NLVYMVTGD(EDANS)-Arg-COOH, was used in this example. […] The intact peptidyl substrate has low fluorescence, due to quenching of the […]. Cleavage of the substrate between the tyrosine and methionine of the peptide sequence results in an increase in fluorescence.
Isolated platelets in 10 mM Tris-HCl pH 8.0 assay buffer were incubated with a final concentration of 8 μg/ml of the FRET substrate at 37° C. The fluorescence was measured in a spectrofluorometric plate reader (Ex 360 nm/Em 440 nm). […]

platelet ADAMTS13 [3] = assay: Enhancement of platelet ADAMTS13 activity by treatment with FXIa; format: biochemical, human; settings: 0.3 ng/ml FXIa, FIG. 11
Experimental: Washed normal platelets from 200 μL of PRP were resuspended in 1 ml of assay buffer. Washed platelets from 1 ml of PRP from a subject with acquired TTP were resuspended in 50 μL of assay buffer. Normal or TTP platelets (10 μl) were added to 10 mM Tris-HCl pH 8.0 assay buffer (80 μl) or assay buffer containing 0.3 ng/ml of FXIa (80 μl). LVY-AMC substrate (10 μl of 2 mM) was added and the fluorescence was monitored (Ex 360 nm/Em 440 nm) for 1500 seconds. FXIa at 0.3 ng/ml was used as a control.

Leu-Val-Tyr-AMC = target: T2, Leu-Val-Tyr-AMC
T2 chain: LVY

[4] = target: T3, NH2-Arg-Lys(DABCYL)-NLVYMVTGD(EDANS)-Arg-COOH
T3 chain: RKNLVYMVTGDR

Suc-Leu-Leu-Val-Tyr-AMC = target: T4, Suc-Leu-Leu-Val-Tyr-AMC
T4 chain: LLVY

Molecule: Leu-Val-Tyr-AMC (Leu-Val-Tyr-{AMC}) [LVY-AMC, fluorogenic peptidyl substrate from Bachem Bioscience Inc; also made by QPR]
- cleavage of peptidyl-AMC substrate by ADAMTS13 in PRP (ADAMTS13): cleaved

Molecule: activated Factor XI
- ADAMTS13 activity towards LVY-AMC substrate (platelet ADAMTS13 [1]): ADAMTS13 activity was significantly increased (by approximately 8-fold) towards LVY-AMC substrate upon treatment of platelets with FXIa

Molecule: NH2-Arg-Lys-(DABCYL)-Asn-Leu-Val-Tyr-Met-Val-Thr-Gly-Asp-(EDANS)-Arg-COOH (H-RK(DABCYL)NLVYMVTGD(EDANS)R-OH; SMILES CSCC[C@H](NC(=O)[C@H](Cc1ccc(O)cc1)NC(=O)[C@@H](NC(=O)[C@H](CC(C)C)NC(=O)[C@H](CC(N)=O)NC(=O)[C@H](CCCCNC(=O)c1ccc(/N=N/c2ccc(N(C)C)cc2)cc1)NC(=O)[C@@H](N)CCCNC(=N)N)C(C)C)C(=O)N[C@H](C(=O)N[C@H](C(=O)NCC(=O)N[C@@H](CC(=O)NCCNc1cccc2c(S(=O)(=O)O)cccc12)C(=O)N[C@@H](CCCNC(=N)N)C(=O)O)[C@@H](C)O)C(C)C) [FRET substrate made for American Diagnostica Inc]
- fluorescence on incubation of platelets with FRET substrate (cleavage by platelet ADAMTS13) [2]: increased fluorescence over time

Molecule: FXIa: activated Factor XI, plasma serine protease
- increase of ADAMTS13 activity towards LVY-AMC substrate upon treatment of platelets with FXIa (platelet ADAMTS13 [3]; normal platelets, 1500 seconds): approximately 8 fold
- enhancement of activity of platelets by treatment with FXIa (platelet ADAMTS13 [3]; platelets from PRP of an acquired TTP patient, compared with normal individual): much lesser extent

B1: platelet ADAMTS13 (protein)
chain: T1 sequence
- fluorescence over time (LVY-AMC cleavage) (Leu-Val-Tyr-AMC): the activity in platelets was due to ADAMTS13 cleaving the LVY-AMC substrate
- fluorescence over time (FRET substrate cleavage) [4]: incubation of platelets with NH2-Arg-Lys(DABCYL)-NLVYMVTGD(EDANS)-Arg-COOH results in increased fluorescence over time

B2: recombinant ADAMTS13 (protein)
chain: T1 sequence
- fluorescence signal (Suc-LLVY-AMC cleavage) (Suc-Leu-Leu-Val-Tyr-AMC): a greater fluorescence signal was produced by the supernatant from transfected cells verses supernatant from mock transfected cells
